These results are taken from patent US12516058B2, “Small-molecule compounds for controlling endosomal toll-like receptors and therapeutic agent for autoimmune diseases using same” (priority 2020, dated 2026).

“Also recorded” adds a separate entry of the source.

The target of one test is T1, TLR7 (Mus musculus, UniProt P58681).
T1 construct: endogenous in cells; host or cells: RAW 264.7
T1 sequence (P58681 27-1050): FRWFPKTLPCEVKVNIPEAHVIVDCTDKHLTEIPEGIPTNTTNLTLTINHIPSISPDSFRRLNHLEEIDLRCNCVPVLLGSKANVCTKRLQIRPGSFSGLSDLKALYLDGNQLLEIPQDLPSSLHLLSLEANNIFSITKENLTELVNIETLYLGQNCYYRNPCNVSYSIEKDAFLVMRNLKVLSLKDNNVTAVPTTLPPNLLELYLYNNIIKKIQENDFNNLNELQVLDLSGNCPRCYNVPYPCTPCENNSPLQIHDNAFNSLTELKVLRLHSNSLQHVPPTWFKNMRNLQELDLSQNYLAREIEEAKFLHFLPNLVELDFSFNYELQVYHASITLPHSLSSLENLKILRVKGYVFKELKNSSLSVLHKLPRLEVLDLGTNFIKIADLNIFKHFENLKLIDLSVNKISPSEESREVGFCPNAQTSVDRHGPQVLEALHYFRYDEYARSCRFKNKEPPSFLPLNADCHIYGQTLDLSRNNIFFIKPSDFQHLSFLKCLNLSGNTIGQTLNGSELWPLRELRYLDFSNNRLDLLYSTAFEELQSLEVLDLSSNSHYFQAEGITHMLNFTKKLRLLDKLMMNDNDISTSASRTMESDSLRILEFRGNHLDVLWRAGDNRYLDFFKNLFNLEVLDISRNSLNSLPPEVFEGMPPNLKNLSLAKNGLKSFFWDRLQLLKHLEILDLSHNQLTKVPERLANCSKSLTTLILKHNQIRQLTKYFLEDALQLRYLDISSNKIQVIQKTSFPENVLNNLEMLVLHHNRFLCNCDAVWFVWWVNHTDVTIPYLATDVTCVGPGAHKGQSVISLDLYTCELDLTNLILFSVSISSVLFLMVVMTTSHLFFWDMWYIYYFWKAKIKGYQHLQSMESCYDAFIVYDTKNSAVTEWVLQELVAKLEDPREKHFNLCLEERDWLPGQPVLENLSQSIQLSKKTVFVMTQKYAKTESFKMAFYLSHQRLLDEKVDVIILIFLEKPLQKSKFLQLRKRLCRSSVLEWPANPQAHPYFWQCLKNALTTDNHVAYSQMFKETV
In words: TNF-α secretion ELISA after TLR7 agonist imiquimod (IMQ) in RAW 264.7 cells. The following applies: SK21 to SK82 at 0.5 μM or 2 μM, Imiquimod 1 μg/ml. The class given is cell-based. As to the method: (§1) In order to determine the inhibitory activities of the test-ligand, RAW 264.7 cells were pretreated with each candidate compound for 1 hour, then treated with Pam3CSK4 (synthetic triacyl lipopeptide; TLR1/2, Invitrogen), FSL-1 (synthetic diacyl lipoprotein, TLR2/6, 100 ng/ml), lipopolysaccharide (LPS, TLR4, Sigma Aldrich), imiquimod (IMQ, TLR7, Invitrogen), and ODN2395 (type C CpG repeat motif DNA oligo(5′-[…]-3), TLR9, Bioneer) ligand for 4 hours, and treated with poly I:C (I:C repeat motif double-stranded RNA, TLR3, Invitrogen) and TL8-506 (TLR8, Invitrogen) showing delayed reactivity for 24 hours. After activation of TLR, the supernatant was diluted in an appropriate ratio so as to measure within the standard dose range, transferred to a pre-coated 96-well assay plate, and then treated with mouse TNF-alpha secretion level in accordance with the manufacturer's instructions using a mouse-TNF-alpha ELISA-kit (Invitrogen).
(§2) In order to plot the concentration-dependent LC50 curves, treatment with the SK series ligands at different concentrations up to 200 μM (the highest concentration that could be treated within the level of 0.5% DMSO) was performed. Then, cell viability and toxicity response upon treatment with ligands were analyzed by MTT as described in Examples 1-3. Cell viability in each plot was normalized from negative control (100%; no treatment) to positive control (highest concentration of test-ligand), and LC50 was determined by non-linear regression (Graph Pad Prism 7.0). In order to plot the concentration-dependent IC50 curves, pre-treatment with the SK series ligands was performed at different concentrations up to 50 μM (twice the initial concentration). Cell responses mediated by TLR7 and TLR9 (levels of TNF-α secretion) were analyzed by ELISA as described in Examples 1-4. The cytokine level in each plot was normalized from negative control (non-treated) to positive control (treatment with ligand), and IC50 was determined by non-linear regression (Graph Pad Prism 7.0).
(§3) In order to select potential inhibitory molecules against TLR3/TLR7/TLR8/TLR9 activation, first, MTT (3-(4,5-dimethylthiazol-2-yl)-2,5-diphenyltetrazolium bromide) cell viability assay (FIG. 7) was performed upon treatment with a set of ligands from SK21 to SK82 at a concentration of 20 μM and the inhibitory activity thereof was evaluated by an ELISA assay to monitor the level of TNF-α secretion in RAW 264.7 cells. The experimental ligands from SK21 to SK82 were administered at 0.5 μM or 2 μM to the RAW 264.7 cells and stimulated with Imiquimod (TLR7, 1 μg/ml) and OND2395 (TLR9, 0.5 μM).
(In general: In an ELISA, binding on a coated surface is turned into a signal by an enzyme label.)

The target of a further test is T2, TLR9 (Mus musculus, UniProt Q9EQU3).
T2 construct: endogenous in cells; host or cells: RAW 264.7
T2 sequence (Q9EQU3 26-1032): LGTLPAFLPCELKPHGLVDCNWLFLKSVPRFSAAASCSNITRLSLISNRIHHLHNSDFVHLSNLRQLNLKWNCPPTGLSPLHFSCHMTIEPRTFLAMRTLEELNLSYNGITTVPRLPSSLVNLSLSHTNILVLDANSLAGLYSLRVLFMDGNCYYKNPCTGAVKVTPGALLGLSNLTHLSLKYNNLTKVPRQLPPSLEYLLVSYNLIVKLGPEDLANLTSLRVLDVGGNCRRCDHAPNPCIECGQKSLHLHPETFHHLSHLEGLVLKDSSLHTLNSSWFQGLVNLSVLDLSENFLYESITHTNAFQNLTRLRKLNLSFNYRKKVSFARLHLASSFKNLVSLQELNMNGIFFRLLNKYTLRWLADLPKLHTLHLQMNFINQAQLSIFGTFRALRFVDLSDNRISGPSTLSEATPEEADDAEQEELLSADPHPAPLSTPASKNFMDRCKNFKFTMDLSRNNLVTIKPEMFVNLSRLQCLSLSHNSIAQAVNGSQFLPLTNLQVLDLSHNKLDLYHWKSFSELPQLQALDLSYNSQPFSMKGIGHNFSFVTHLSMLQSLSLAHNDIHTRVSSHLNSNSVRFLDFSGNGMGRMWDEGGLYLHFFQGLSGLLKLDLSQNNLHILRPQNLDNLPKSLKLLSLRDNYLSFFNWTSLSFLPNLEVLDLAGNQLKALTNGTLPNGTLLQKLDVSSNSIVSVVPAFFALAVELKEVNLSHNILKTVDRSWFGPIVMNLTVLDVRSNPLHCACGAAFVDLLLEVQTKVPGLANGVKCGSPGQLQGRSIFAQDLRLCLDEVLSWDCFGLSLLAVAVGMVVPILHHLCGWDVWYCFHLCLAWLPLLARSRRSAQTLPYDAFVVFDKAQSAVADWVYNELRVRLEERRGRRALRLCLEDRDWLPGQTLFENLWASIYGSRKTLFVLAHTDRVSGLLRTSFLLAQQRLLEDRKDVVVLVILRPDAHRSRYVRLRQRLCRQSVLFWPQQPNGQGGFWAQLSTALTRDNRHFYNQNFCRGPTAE
As to the kind of experiment: TNF-α secretion ELISA after TLR9 agonist ODN2395 in RAW 264.7 cells. The format is cell-based. The following applies: SK21 to SK82 at 0.5 μM or 2 μM, ODN2395 0.5 μM. On the procedure:
as §1, §2, §3

In the case of `CN(C)CCCNc1c2c(nc3c1c1c4ccccc4ccc1n3CCCN(C)C)CCCC2` [SK72, N1-(7-(3-(dimethylamino)propyl)-9,10,11,12-tetrahydro-7H-benzo[4,5]indolo[2,3-b]quinolin-13-yl)-N3,N3-dimethylpropane-1,3-diamine], at TLR7, the “inhibitory activity against TLR7 (level of TNF-α secretion)” value is given as “significant inhibitory activity; also recorded: significantly reduced”. Besides, the “inhibitory activity against TLR9 (level of TNF-α secretion)” value at TLR9 is given as “significant inhibitory activity; also recorded: significantly reduced”.
In the case of `Cc1cc2c(N)c3c(nc2n1CCCN(C)C)CCCC3` [SK39, 1-(3-(dimethylamino)propyl)-2-methyl-5,6,7,8-tetrahydro-1H-pyrrolo[2,3-b]quinolin-4-amine], the “inhibitory activity against TLR7 (level of TNF-α secretion)” value on TLR7 is on record as “significant inhibitory activity; also recorded: significantly reduced”. Moreover, the “inhibitory activity against TLR9 (level of TNF-α secretion)” value on TLR9 is recorded as “significant inhibitory activity; also recorded: significantly reduced”.
